Structures can show the parent of a compound that is named as a salt.
Assays:
[1] = tested on: reserpine (5 mg/kg i.p.) induced hypothermia; test: Antireserpine activity in mice (antagonism of reserpine induced hypothermia), relative to Amitriptyline; assay type: in vivo; conditions: Amitriptyline=1
Protocol: The 2-substituted-1-(omega-aminoalkoxy)benzenes and the acid addition salts thereof may be purified by recrystallization employing a suitable solvent such as alcohol-ether.
The compounds were administered intraperitoneally and the activities of the compounds were compared with those of Amitriptyline.

[2] = tested on: electroshock induced tonic extensor; test: Anticonvulsant activity: antagonism of electroshock induced tonic extensor; assay type: in vivo; conditions: Mus musculus, po; mice; p.o.; dose preventing 50% of response; read-out: Anti-Convulsant Activity ED50
[3] = tested on: spontaneous motor activity; test: CNS depressant activity: spontaneous motor activity depression (ANIMEX apparatus); assay type: in vivo; conditions: Mus musculus, po, mice
[4] = Acute toxicity in mice, LD50 (Litchfield-Wilcoxon); conditions: mouse, in vivo, ip
Protocol: The compounds have been tested in mice for antidepressant, sedative, anticonvulsant and anticholinergic activity. The compounds were administered intraperitoneally and the activities of the compounds were compared with those of Amitriptyline.
LD50 was calculated by Litchfield-Wilcoxon method.

[5] = tested on: neurological deficit as measured by traction test; test: CNS depressant activity: muscle relaxant action, traction test; assay type: in vivo; conditions: Mus musculus, po, mice
tremorine induced tremor = test: Central anticholinergic effect: antitremorine effect; assay type: in vivo; conditions: Mus musculus, po, mice

| SMILES | Antireserpine activity, Relative Potency [1] | LD50 [4] [mg/kg] | also measured |
| --- | --- | --- | --- |
| CN(C)CCCCOc1ccccc1Cc1ccccc1O [compound 9] | 0.77 |  |  |
| Cc1ccccc1Oc1ccccc1OCCCN(C)C [compound 13] | 0.95 |  |  |
| CN(C)CCC=C1c2ccccc2CCc2ccccc21 [Amitriptyline, reference compound] |  | 300 | ED50 [2]: 19 mg/kg; ED50 [3]: 28 mg/kg; ED50 [5]: 40 mg/kg; ED50 (tremorine induced tremor): 11 mg/kg |
| CCOc1ccccc1Oc1ccccc1OCCCCNC [compound 10] | 0.90 |  |  |
| CNCCCCOc1c(C)cccc1Cc1ccccc1 [No. 1, 2-(4-methylaminobutoxy)-3-methyldiphenylmethane hydrochloride] | 0.56 | 500 to 700 |  |
| CNCCCCOc1ccccc1Cc1ccccc1O [compound 8] | 1.00 | 600 to 700 |  |
| CNCCCCOc1ccccc1Cc1ccccc1O [No. 8, 2-(4-methylaminobutoxy)-2'-hydroxydiphenylmethane] |  |  | ED50 [2]: 190 mg/kg; ED50 [3]: 175 mg/kg; ED50 [5]: 390 mg/kg; ED50 (tremorine induced tremor): > 200 mg/kg |
| CNCCCCOc1ccccc1Cc1ccc(C)cc1 [compound 4] | 0.44 |  |  |
| CNCCCCOc1ccccc1Cc1ccc(Cl)cc1 [compound 5] | 0.44 |  |  |
| CNCCCCOc1ccccc1Cc1ccccc1OC [compound 7] | 0.85 | 600 |  |
| CCN(CC)CCCOc1ccccc1Oc1ccccc1C [compound 15] | 0.44 |  |  |
| CCNCCCOc1ccccc1Oc1ccccc1C [compound 14] | 0.46 |  |  |
| COc1ccc(Cc2ccccc2OCCCCN(CCO)CCO)cc1 [compound 6] | 0.44 |  |  |
| Cc1ccccc1Oc1ccccc1OCCCN1CCCC1 [compound 16] | 0.42 |  |  |
| Cc1cccc(Cc2ccccc2)c1OCCCCN(C)C [No. 2, 2-(4-dimethylaminobutoxy)-3-methyldiphenylmethane] | 0.66 | 500 to 700 |  |
| CNCCCOc1ccccc1Oc1ccccc1C [compound 12] | 1.12 |  |  |
| Cc1ccc(OCCCCN(C)C)c(Cc2ccccc2)c1 [compound 3] | 0.70 | 500 to 700 |  |
| CNCCCCOc1ccccc1Oc1ccccc1C [compound 11] | 0.65 |  |  |

From patent publication US4562211A, “Pharmaceutically active 2-substituted-1-(omega-aminoalkoxy)benzenes” (Mitsubishi Chemical Industries, Ltd., priority 1976, dated 1985)
